Assay results reported in patent US12583858B2 (Genentech, Inc., priority 2015, dated 2026).
Read-outs that look alike come from different tables or passages of the source.

Columns and labels:
TDO2 = target: T1, TDO2 (Homo sapiens, UniProt P48775); experiment: TDO2 cell assay (NFK GreenScreen, SW48 cells); assay type: cell-based; conditions: SW48 cells (high TDO expressing)
T1 construct: decreased levels of NFK in SW48 cells (high TDO expressing cells)

IDO = target: T2, IDO (Homo sapiens, UniProt P14902); experiment: IDO cell assay (NFK GreenScreen, A172+IFNg cells); assay type: cell-based; conditions: A172 cells + 100 ng/ml IFNγ (high IDO expressing), 100 uM tryptophan, 24 hours; TDO selectivity table; read-out: IDO cell Fluor EC50
T2 construct: selective against A172+IFNg cells (high IDO expressing cells)
T2 sequence (P14902 whole entry): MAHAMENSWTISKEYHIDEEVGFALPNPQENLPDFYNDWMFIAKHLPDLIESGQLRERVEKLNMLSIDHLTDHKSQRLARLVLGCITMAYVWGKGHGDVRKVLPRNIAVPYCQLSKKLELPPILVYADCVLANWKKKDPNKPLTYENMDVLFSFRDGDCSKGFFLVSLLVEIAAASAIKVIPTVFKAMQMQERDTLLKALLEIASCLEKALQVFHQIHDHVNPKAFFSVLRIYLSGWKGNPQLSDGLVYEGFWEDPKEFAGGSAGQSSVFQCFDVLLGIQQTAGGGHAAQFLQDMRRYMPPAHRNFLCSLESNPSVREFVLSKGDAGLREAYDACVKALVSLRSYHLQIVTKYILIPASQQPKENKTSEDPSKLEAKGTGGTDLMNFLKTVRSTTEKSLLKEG
Description: Cells are counted on a Vi-Cell (Beckman Coulter). […] The final DMSO concentration is 0.5%.
Compounds of the invention were tested for selectivity against TDO over IDO. The cell based assay described above was used to test for TDO and IDO activity.

T1 sequence (P48775 whole entry): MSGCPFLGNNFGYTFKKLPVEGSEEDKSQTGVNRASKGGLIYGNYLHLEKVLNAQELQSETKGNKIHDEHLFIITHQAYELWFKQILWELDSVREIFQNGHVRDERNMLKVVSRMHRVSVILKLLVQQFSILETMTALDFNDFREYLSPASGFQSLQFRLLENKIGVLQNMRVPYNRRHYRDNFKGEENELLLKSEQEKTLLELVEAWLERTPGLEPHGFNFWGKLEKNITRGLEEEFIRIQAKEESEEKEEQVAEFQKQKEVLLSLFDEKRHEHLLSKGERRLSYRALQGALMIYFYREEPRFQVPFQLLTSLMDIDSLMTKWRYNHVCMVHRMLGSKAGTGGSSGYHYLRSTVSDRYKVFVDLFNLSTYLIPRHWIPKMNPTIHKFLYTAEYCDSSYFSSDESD

EC50 (TDO2; 200 uM tryptophan, 24 hours, Table 3, read-out: TDO2 Cell Fluor EC50): 35 nM
EC50 (TDO2; TDO selectivity table, read-out: TDO2 cell Fluor EC50): 35 nM
EC50 (IDO): 1400 nM
Structure (SMILES): NC(=O)c1ccc2c(c1)CC[C@@H]([C@H]1c3ccccc3-c3cncn31)[C@@H]2O [Example 60e, (5S,6S)-5-hydroxy-6-((S)-5H-imidazo[5,1-a]isoindol-5-yl)-5,6,7,8-tetrahydronaphthalene-2-carboxamide]
